The values that follow come from PMC9698340, “Discovery and SAR Study of Quinoxaline–Arylfuran Derivatives as a New Class of Antitumor Agents” (Pharmaceutics, 2022).

In assay [1] the test system is five melanoma cell lines, including mutant B-RAFV600E and wild-type. Also noted: method as in PMID 30691132. The settings on record: range over cell lines; read-out: IC50 values against five melanoma cell lines; cited from earlier work.
In another assay the test system is HeLa cells. The assay can be described thus: CCK-8 antiproliferation assay, HeLa. The settings on record: Homo sapiens, 48 h; for inhibition at 20 µM: CCK-8, mean ± SD, read-out: Inhibition Rate (%) at 20 μM, HeLa. The class given is cell-based. As for the experimental part:
(§1) Human lung carcinoma cell lines A549, human cervical cancer cell lines HeLa, human prostate cancer cell lines PC3, human colorectal carcinoma cell lines HCT116, and human liver cells L02 were purchased from the Chinese Academy of Sciences Shanghai Cell Bank (Shanghai, China). HeLa, A549, PC3, HCT116, and L02 cells were cultured in DMEM Dulbecco’s Modified Eagle Medium (DMEM; Gibco Inc., Gaithersburg, MD, USA). All cultures were provided with 10% fetal bovine serum (FBS; YHSM, Beijing, China), 100 IU/mL penicillin, and 100 μg/mL streptomycin, and cells were incubated at 37 °C in an atmosphere of 5% CO2.
(§2) Cell viability was determined using a CCK-8 kit (Apexbio, Houston, TX, USA). […] Subsequently, absorbance was assessed at 450 nm. Three duplicates were set in each group.
(§3) All synthesized quinoxalines compounds were tested for in vitro cytotoxicity against four cancer cell lines (HeLa, PC3, A549, and HCT116). The inhibitory effects of these compounds were evaluated using the CCK-8 assay after treatment with 20 μM of each compound. […] The species of phenyl substituents have a significant effect on the activity. […] By comparison, hydrophobic substitution at the phenyl ring gave derivatives with relatively low potency (QW7–8). In addition, large substituents on the phenyl ring exerted an unfavorable influence on the potency of the compounds (QW8 and QW16).

Another assay concerns HCT116 cells. The assay can be described thus: CCK-8 antiproliferation assay, HCT116. The class given is cell-based. The note with it: Homo sapiens, HCT-116, 48 h; for inhibition at 20 µM: CCK-8, mean ± SD, read-out: Inhibition Rate (%) at 20 μM, HCT116. As for the experimental part:
as §1, §2, §3
Background: Formazan colour is commonly taken as a measure of viable cells.

The subject of another assay is PC3 cells. The assay can be described thus: CCK-8 antiproliferation assay, PC3. The settings on record: Homo sapiens, PC-3, 48 h; for inhibition at 20 µM: CCK-8, mean ± SD, read-out: Inhibition Rate (%) at 20 μM, PC3. The class given is cell-based. As for the experimental part:
as §1, §2, §3

For a further assay, the system named is L02 cells. The assay can be described thus: CCK-8 cytotoxicity against normal hepatocytes L02. It counts as cell-based. The settings on record: Homo sapiens, 48 h, read-out: IC50 ± SD, L02 (human normal hepatocytes). As for the experimental part:
as §1, §2
To further evaluate the anticancer effect of QW12, we evaluated its cytotoxicity against four human cancer cell lines: HeLa (Human cervical tumor), PC3 (Human prostate tumor), HCT116 (Human colorectal carcinomas), and A549 (Human lung carcinoma). […] Furthermore, the IC50 values of QW12 against PC3 and HCT116 were similar to those of nifuroxazide.

The next assay has as its system A549 cells. As to the kind of experiment: CCK-8 antiproliferation assay, A549. The class given is cell-based. The note with it: Homo sapiens, 48 h; for inhibition at 20 µM: CCK-8, mean ± SD, read-out: Inhibition Rate (%) at 20 μM, A549. As for the experimental part: as §1, §2, §3

SMILES strings stand for the structures.

For `N=C(N)[Se]Cc1nc2ccccc2nc1C[Se]C(=N)N` [Compound 5], in assay [1], the IC50 was 0.8 to 3.8 µM.

For the compound `O=C(N/N=C/c1ccc([N+](=O)[O-])o1)c1ccc(O)cc1` [Nifuroxazide, nifuroxazide, reference compound], the IC50 was 16.65 ± 0.08 µM in the assay with HeLa cells (HeLa, CCK-8, read-out: IC50 ± SD, HeLa); 10.46 ± 0.04 µM in the assay with HCT116 cells (CCK-8, read-out: IC50 ± SD, HCT116); 9.83 ± 0.05 µM with PC3 cells (CCK-8, read-out: IC50 ± SD, PC3); 25.3 ± 0.31 µM in the assay on L02 cells; 8.06 ± 0.03 µM in the assay with A549 cells (CCK-8, read-out: IC50 ± SD, A549). The inhibition at 20 µM in the assay on HeLa cells is 80.38 ± 0.17%; with HCT116 cells, 85.31 ± 0.24%; in the assay on PC3 cells, 75.29 ± 0.33%; with A549 cells it was 91.23 ± 0.04%.

Take `COc1cc(-c2cc(OC)c3ccccc3c2OC)c(OC)cc1-c1ccc(/C=N/NC(=O)c2ccccn2)o1` [QW22, (E)-N’-((5-(4-(1,4-dimethoxynaphthalen-2-yl)-2,5-dimethoxyphenyl)furan-2-yl)methylene)picolinohydrazide]: the inhibition at 20 µM in the assay on HeLa cells stood at 5.47 ± 0.37%; in the assay on HCT116 cells it was 6.58 ± 0.23%; in the assay on PC3 cells, 0.33 ± 0.06%; in the assay with A549 cells it was 37.5 ± 0.48%.

As to `COc1cc(-c2cc(OC)c3ccccc3c2OC)c(OC)cc1-c1ccc(/C=N/NC(=O)c2cccc(C)c2)o1` [QW23, (E)-N’-((5-(4-(1,4-dimethoxynaphthalen-2-yl)-2,5-dimethoxyphenyl)furan-2-yl)methylene)-3-methylbenzohydrazide], the inhibition at 20 µM with HeLa cells came out at 0.84 ± 0.64%; in the assay on HCT116 cells, 2.26 ± 0.03%; with PC3 cells, 2.99 ± 0.25%; with A549 cells it was 1.87 ± 0.33%.

In the case of `COc1cc(-c2cc(OC)c3ccccc3c2OC)c(OC)cc1-c1ccc(/C=N/NC(=O)c2ccc(-c3ccccc3)cc2)o1` [QW24, (E)-N’-((5-(4-(1,4-dimethoxynaphthalen-2-yl)-2,5-dimethoxyphenyl)furan-2-yl)methylene)-[1,1’-biphenyl]-4-carbohydrazide], the inhibition at 20 µM in the assay on HeLa cells came out at 4.96 ± 0.61%; with HCT116 cells, 4.39 ± 0.52%; in the assay on PC3 cells it was 2.4 ± 0.07%; with A549 cells, 6 ± 0.1%.

What is called IC50 is the concentration that inhibits the measured activity by half. One may read the inhibition as how much of the control response was suppressed.
